From patent US8536202B2, “Triazole-substituted anthranilamides as pesticides” (Bayer Cropscience AG, priority 2010, dated 2013)
Read-outs that look alike come from different tables or passages of the source.

Columns and labels:
[1] = log P determination by HPLC on reversed-phase columns (EEC Directive 79/831 Annex V.A8); assay type: physicochemical; settings: pH 2.7
Outline: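 Calibration used unbranched alkan-2-ones of 3 to 16 carbons with known log P, values interpolated linearly from retention times between neighbouring standards. Acidic-range LC-MS run at pH 2.7, eluents aqueous and acetonitrile formic acid 0.1%, linear gradient 10% to 95% acetonitrile.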

[2] = system: caterpillars of the armyworm (Spodoptera frugiperda); test: Spodoptera frugiperda test (SPODFR spray treatment); assay type: in vivo; settings: 168 h, read-out: activity in %
Outline: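 Percent caterpillar mortality read 7 days after infestation (0% none killed, 100% all killed). Treatment was a spray of the acetone/DMF/emulsifier formulation, water-diluted to test concentration, onto Zea mays leaf discs, allowed to dry before larvae were added.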

[3] = system: green peach aphid (Myzus persicae); test: Myzus test (MYZUPE spray treatment), Use Example 4; assay type: in vivo; settings: 144 h; for pest or weed control at 100 g/ha: read-out: activity in %
Outline: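 Compound was formulated in acetone/dimethylformamide with alkylaryl polyglycol ether emulsifier and diluted in emulsifier-containing water. It was sprayed onto Chinese cabbage leaf discs infested with all stages of Myzus persicae. Mortality (%) was scored after 6 days, where 100% means all aphids killed.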

[4] = system: larvae of the mustard beetle (Phaedon cochleariae); test: Phaedon test (PHAECO spray treatment); assay type: in vivo; settings: 168 h, read-out: activity in %
Outline: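 Mortality of mustard beetle larvae, expressed as percent killed (100% all, 0% none), assessed 7 days after spraying. Spray liquor made from compound in acetone plus dimethylformamide with alkylaryl polyglycol ether, diluted in emulsifier-containing water to the desired concentration.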

[5] = HPLC on reversed-phase columns (C 18), EEC Directive 79/831 Annex V.A8, read-out: logP

Row | SMILES | chromatographic logP [1] | pest or weed control at 100 g/ha ([2]; 100 g/ha, after 7 days) [%] | pest or weed control at 100 g/ha ([3]; 100 g/ha, after 6 days) [%] | pest or weed control at 100 g/ha ([4]; 100 g/ha, after 7 days) [%] | chromatographic logP [1, 5] | pest or weed control at 100 g/ha [2] [%] | pest or weed control at 100 g/ha [3] [%] | pest or weed control at 100 g/ha [4] [%] | chromatographic logP ([1]; reversed-phase C18 HPLC column, HPLC on reversed-phase columns (C 18), EEC Directive 79/831 Annex V.A8, read-out: logP) | pest or weed control at 500 g/ha ([3]; 500 g/ha, after 6 days) [%]
1 | CSC[C@H](C)NC(=O)c1cc(I)cc(C)c1NC(=O)c1cc(Cn2ncc(C(F)(F)C(F)(F)F)n2)nn1-c1ncccc1Cl [Example 344] | 4.34 | 100 | 100 | 100 |  |  |  |  |  | 
2 | CSC[C@H](C)NC(=O)c1cc(Cl)cc(C)c1NC(=O)c1cc(Cn2ncc(C(F)(F)C(F)(F)F)n2)nn1-c1ncccc1Cl [Example 348] | 4.1 | 100 | 80 | 100 |  |  |  |  |  | 
3 | Cc1cc(Cl)cc(C(=O)NCC2CC2)c1NC(=O)c1cc(Cn2ncc(C(F)(F)C(F)(F)F)n2)nn1-c1ncccc1Cl [Example 349] | 3.96 | 100 | 80 | 100 |  |  |  |  |  | 
4 | CCNC(=O)c1cc(Cl)cc(C)c1NC(=O)c1cc(Cn2ncc(C(F)(F)C(F)(F)F)n2)nn1-c1ncccc1Cl [Example 350] | 3.66 | 100 | 80 | 100 |  |  |  |  |  | 
5 | CNC(=O)c1cc(Cl)cc(C)c1NC(=O)c1cc(Cn2ncc(C(F)(F)C(F)(F)F)n2)nn1-c1ncccc1Cl [Example 352] | 3.4 | 100 | 80 | 100 |  |  |  |  |  | 
6 | Cc1cc(C#N)cc(C(=O)NC2CC2)c1NC(=O)c1cc(Cn2ncc(C(F)(F)C(F)(F)F)n2)nn1-c1ncccc1Cl [Example 353] | 3.25 | 100 | 100 | 100 |  |  |  |  |  | 
7 | Cc1cc(I)cc(C(=O)NC(C)(C)C)c1NC(=O)c1cc(Cn2ncc(C(F)(F)C(F)(F)F)n2)nn1-c1ncccc1Cl [Example 356] | 4.47 | 100 | 80 | 100 |  |  |  |  |  | 
8 | CNC(=O)c1cc(I)cc(C)c1NC(=O)c1cc(Cn2ncc(C(F)(F)C(F)(F)F)n2)nn1-c1ncccc1Cl [Example 358] | 3.64 | 100 | 80 | 100 |  |  |  |  |  | 
9 | Cc1cc(Cl)cc(C(N)=O)c1NC(=O)c1cc(Cn2ncc(C(F)(F)C(F)(F)F)n2)nn1-c1ncccc1Cl [Example 359] | 3.12 | 100 | 100 | 100 |  |  |  |  |  | 
10 | Cc1cc(Cl)cc(C(=O)NC(C)(C)C)c1NC(=O)c1cc(Cn2ncc(C(F)(F)C(F)(F)F)n2)nn1-c1ncccc1Cl [Example 360] | 4.27 | 100 | 80 | 100 |  |  |  |  |  | 
11 | Cc1cc(Cl)cc(C(=O)NC(C)C)c1NC(=O)c1cc(Cn2ncc(C(F)(F)C(F)(F)F)n2)nn1-c1ncccc1Cl [Example 361] | 3.89 | 100 | 80 | 100 |  |  |  |  |  | 
12 | Cc1cc(Cl)cc(C(=O)NC2CC2)c1NC(=O)c1cc(Cn2ncc(C(F)(F)C(F)(F)F)n2)nn1-c1ncccc1Cl [Example 362] | 3.62 | 100 | 80 | 100 |  |  |  |  |  | 
13 | CCNC(=O)c1cc(C#N)cc(C)c1NC(=O)c1cc(Cn2ncc(C(F)(F)C(F)(F)F)n2)nn1-c1ncccc1Cl [Example 363] | 3.26 | 100 | 100 | 100 |  |  |  |  |  | 
14 | Cc1cc(C#N)cc(C(=O)NC(C)C)c1NC(=O)c1cc(Cn2ncc(C(F)(F)C(F)(F)F)n2)nn1-c1ncccc1Cl [Example 364] | 3.52 | 100 | 100 | 100 |  |  |  |  |  | 
15 | CNC(=O)c1cc(C#N)cc(C)c1NC(=O)c1cc(Cn2ncc(C(F)(F)C(F)(F)F)n2)nn1-c1ncccc1Cl [Example 365] | 3.04 | 100 | 100 | 100 |  |  |  |  |  | 
16 | CNC(=O)c1cc(Cl)cc(C)c1NC(=O)c1cc(Cn2ncc(C(F)(F)C(F)(F)C(F)(F)F)n2)nn1-c1ncccc1Cl [Example 368] |  |  |  |  | 3.76 | 100 | 100 | 100 |  | 
17 | CCNC(=O)c1cc(C#N)cc(C)c1NC(=O)c1cc(Cn2ncc(C(F)(F)C(F)(F)C(F)(F)F)n2)nn1-c1ncccc1Cl [Example 372] |  |  |  |  | 3.65 | 100 | 100 | 100 |  | 
18 | CSC[C@H](C)NC(=O)c1cc(I)cc(C)c1NC(=O)c1cc(Cn2ncc(C(F)(F)C(F)(F)C(F)(F)F)n2)nn1-c1ncccc1Cl [Example 373] |  |  |  |  | 4.65 | 100 | 100 | 100 |  | 
19 | Cc1cc(I)cc(C(N)=O)c1NC(=O)c1cc(Cn2ncc(C(F)(F)C(F)(F)C(F)(F)F)n2)nn1-c1ncccc1Cl [Example 381] |  |  |  |  | 3.7 | 100 | 100 | 100 |  | 
20 | CSC[C@H](C)NC(=O)c1cc(Cl)cc(C)c1NC(=O)c1cc(Cn2ncc(C(F)(F)C(F)(F)C(F)(F)F)n2)nn1-c1ncccc1Cl [Example 383] |  |  |  |  | 4.41 | 100 | 80 | 100 |  | 
21 | Cc1cc(Cl)cc(C(N)=O)c1NC(=O)c1cc(Cn2ncc(C(F)(F)C(F)(F)C(F)(F)F)n2)nn1-c1ncccc1Cl [Example 384] |  |  |  |  | 3.5 | 100 | 100 | 100 |  | 
22 | CNC(=O)c1cc(C#N)cc(C)c1NC(=O)c1cc(Cn2ncc(C(F)(F)C(F)(F)C(F)(F)F)n2)nn1-c1ncccc1Cl [Example 387] |  |  |  |  | 3.39 | 100 | 100 | 100 |  | 
23 | Cc1cc(Cl)cc(C(=O)NC(C)(C)C)c1NC(=O)c1cc(Cn2nc(C(F)(F)F)c(C(F)(F)F)n2)nn1-c1ncccc1Cl [Example 393] | 4.59 | 100 | 90 | 100 |  |  |  |  |  | 
24 | Cc1cc(C#N)cc(C(N)=O)c1NC(=O)c1cc(Cn2nc(C(F)(F)F)c(C(F)(F)F)n2)nn1-c1ncccc1Cl [Example 396] | 3.21 | 100 | 90 | 100 |  |  |  |  |  | 
25 | CSC[C@H](C)NC(=O)c1cc(C#N)cc(C)c1NC(=O)c1cc(Cn2nc(C(F)(F)F)c(C(F)(F)F)n2)nn1-c1ncccc1Cl [Example 400] |  | 100 |  | 100 |  |  |  |  | 4.05 | 100
26 | Cc1cc(I)cc(C(N)=O)c1NC(=O)c1cc(Cn2nc(C(F)(F)F)c(C(F)(F)F)n2)nn1-c1ncccc1Cl [Example 402] | 3.67 | 100 | 80 | 100 |  |  |  |  |  | 
27 | CSC[C@H](C)NC(=O)c1cc(Cl)cc(C)c1NC(=O)c1cc(Cn2nc(C(F)(F)F)c(C(F)(F)F)n2)nn1-c1ncccc1Cl [Example 408] | 4.4 | 100 | 90 | 100 |  |  |  |  |  | 
28 | Cc1cc(C#N)cc(C(=O)NC(C)(C)C)c1NC(=O)c1cc(Cn2nc(C(F)(F)F)c(C(F)(F)F)n2)nn1-c1ncccc1Cl [Example 412] | 4.16 | 100 | 80 | 100 |  |  |  |  |  | 
29 | CNC(=O)c1cc(C#N)cc(C)c1NC(=O)c1cc(Cn2nc(C(F)(F)F)c(C(F)(F)F)n2)nn1-c1ncccc1Cl [Example 414] | 3.43 | 100 | 100 | 100 |  |  |  |  |  | 
